Entries after “also recorded” stand apart in the source; their conditions may differ.
What was measured:
zebrafish embryos [1] = assay: Five-day zebrafish toxicity testing; format: in vivo
Protocol: Fertilized zebrafish embryos were obtained by natural spawning in our aquaculture facility. To reduce variations between batches, randomized samples of embryos from 3 or 4 independent matings were used. The test medium was prepared by combining 5 g of Instant Ocean Salt with 3 g of CaSO4 in 25 liters of distilled water, according to Westerfield, supra. The embryos were maintained in the test medium throughout the experiments. Embryos at 24 hours of development (with chorion) were exposed continuously for five days to chemical compounds at different concentrations of the chemical compounds and controls. In general, the concentrations ranged from 100 nanomolar (nM) to 100 micromolar (μM). Tests were repeated four times for each series of dilutions, and a standard deviation was calculated for each treatment (see “Statistical Methods” section). Ten embryos per concentration were exposed in a total volume of 1 ml (constant ratio of 100 μl/embryo) using a 24 multi-well plate. (Other sizes of multi-well plates, such as 96-well plates can also be used to facilitate screening.) The compounds were renewed daily. In all cases, 0.1% of dimethyl sulfoxide (DMSO) was used as a carrier solvent during the treatment. Controls with and without 0.1% DMSO were performed in all experiments. This approach has long been used to introduce anesthetics and other chemicals into fish embryos (Westerfield, supra).
Experiments were carried out at a constant temperature (28–28.5° C.) in the dark to protect the compounds from decomposition due to light exposure. Dead embryos were removed daily, counted, and used to calculate the Median Lethal Concentration (LC50, see “Statistical Methods” section herein). Each day, surviving embryos were analyzed visually under a dissecting binocular microscope (Zeiss, amplification 30–50×). Macroscopic malformations (such as axial defects, embryolethality, growth inhibition, general malformations, including microcephaly, macrocephaly, tail truncation, tail malformation, loss of axial structures, such as somites, etc.) were observed, classified, and counted to assess whole animal toxicity. Compounds that were lethal or induced these or any noted malformations or disruptions during development (e.g., during the first 5 days of development) were further examined for toxic effects on organs. The embryonic developmental stage that is affected by the toxic compound can be determined. Organ toxicity can be assessed in surviving embryos using in situ hybridization, enzymatic assays, and immunochemistry procedures.
Toxic activity in the kidney (Pronephros) can be assessed visually by colorimetric staining of the kidney of the treated whole animal (e.g., zebrafish). Zebrafish pronephros express high levels of the enzyme alkaline phosphatase that can be easily assayed using a chromogenic dye. To stain kidneys in zebrafish embryos, embryos were fixed with 2% paraformaldehyde overnight at 4° C. and then treated with methanol 100% for 30 minutes at room temperature. […]
For the concentrations tested with aspirin and dexamethasone in these studies, there was no partial lethality and the geometric mean of the parameters “no mortality” (0%) and “mortality” (100%) of the effect concentration was taken as the LC50 and binomial confidence limits were calculated according to Stephan, “Methods for Calculating LD50” in Aquatic Toxicology and Hazard Evaluation (F. L. Mayce and J. L. Hamelink eds.) ASTM STP 634, pp. 65–84. […]

mice and rats = conditions: TOXNET Web Search and other sources; cited from earlier work
zebrafish embryos [2] = assay: Rescue of induced cell death activity; format: in vivo; conditions: for opacity at two hours after the addition of 100 μM Ibuprofen / opaque cells at one hour after 100 μM Ibuprofen: yolk injection of 25 μM Caspase 3 inhibitor or PBS at 24 hours; for opaque cells at one hour after 100 μM Ibuprofen: Ibuprofen at 26 hours
Protocol: To determine if the teleost model could be used to screen for compounds which blocked or reduced cell death activity, embryos were microinjected with a Caspase 3 inhibitor (Calbiochem #264155) prior to exposure to Ibuprofen.
Specifically, embryos at 24 hours of development were dechorionated and microinjected with either 25 μM Caspase 3 inhibitor or PBS into the yolk. At 26 hours of development, embryos were exposed to 100 μM Ibuprofen by addition to the media.

zebrafish embryos [3] = assay: Fluorescent detection of cell death in live zebrafish embryos; format: in vivo; conditions: 100 μM
Protocol: As an additional test of our cell death detection method, we also examined the ability of the dye to label cells in embryos treated with Ibuprofen, a cyclooxygenase inhibitor, which causes a characteristic pattern of cell death. This pattern consists of a posterior to anterior progression of dying cells as indicated by a progression of opacity changes in the cells of the embryo.
Embryos as 24 hours of development were pretreated for 1 hour with a 100 nanomolar concentration of the fluorescent dye (e.g., benzothiazolium-4-quinolium dye) in embryo media. The embryos were then exposed to 100 μM of Ibuprofen by addition to the media and examined by light and epifluorescence microscopy every 15 minutes for 2 hours. Control embryos were pretreated with the same concentration of dye, but were not exposed to the Ibuprofen. […] This pattern of fluorescently labeled cells was identical to the pattern observed for the opacity changes in the embryo.

zebrafish embryo = assay: First screening experiments for anti-angiogenic effects (compound added to fish culture media); format: in vivo; conditions: for other effects / complications in the embryo / effect on blood vessel formation: added to the fish culture media; for effect on blood vessel formation: AP staining day three; for diffusion into the zebrafish embryo: after addition to the media
Protocol: On the third day of development, embryos were collected for alkaline phosphatase staining. Specifically, embryos were fixed in 4% paraformaldehyde and stained for endogenous alkaline phosphatase activity. Embryos were fixed for 2 hours at room temperature. The embryos were then washed two times in phosphate buffered saline (PBS) and dehydrated by immersion in 25%, 50%, 75% and 100% methanol in phosphate buffered saline with 0.1% Tween (PBT) to permeabilize the embryos. The embryos were then rehydrated and washed in 100% PBT. For staining, embryos were equilibrated in NTMT buffer (0.1M Tris-HCl pH 9.5; 50 mM MgCl; 0.1M NaCl; 0.1% Tween 20) at room temperature. After the embryos equilibrated, embryos were stained by adding 4.5 μl of 75 mg/ml nitro blue tetrazolium (NBT) and 3.5 μL of 50 mg/ml X-phosphate per ml. After staining for 10 minutes, all the blood vessels in the fish embryo were labeled (see FIGS. 2A–2C, 3A–3B, 4, 7). The staining reaction was stopped by addition of PBST. Embryos were then examined on a stereo-dissecting microscope. One advantage of using the zebrafish for this type of assay is that the subintestinal vessels, which are located over the yolk, are both sensitive to factors which effect vessel formation and easily assayed by this method (see, e.g., FIG. 7). The subintestinal vessels are normally present on the dorsolateral surface of the yolk of zebrafish embryos by 48 hours of development. They form a distinct basket shape that extends 50–100 μm from the ventral edge of the somite over the yolk. By assaying the subintestinal vessels at 72 hours of development (24 hours after the subintestinal vessels normally appear), normal variation in the timing of the vessel formation was avoided. The staining procedure is easily automated using commercially available instrumentation.
In our first set of screening experiments for anti-angiogenic effects, we examined the effect of fumagillin, a natural anti-angiogenesis chemical, on blood vessel formation in the zebrafish embryo. The compound was administered by addition to the fish culture media. […] Using the screening parameters described above, we identified two compounds that caused apparently specific anti-angiogenic effects. In addition, we identified 16 other compounds that caused a reduction of angiogenic vessel formation in addition to other effects.

zebrafish embryos [4] = assay: Microinjection of proteins into 24 hour embryos, effect on vessel formation; format: in vivo
Protocol: To examine the effects of proteins and protein fragments (and peptides and peptide fragments) on angiogenesis in teleost embryos, proteins (and protein fragments and peptide fragments) were directly injected into the circulation of 24 hour zebrafish embryos. Embryos were collected and dechorionated as described above. The embryos were then sorted into holding ramps made of 1% agarose in embryo water and oriented with the yolk ball projecting up. Microinjection injection was performed as follows: the proteins were suspended in PBS and backfilled into a pulled glass micropipet. The micropipet was then attached to a micromanipulator and a picospritzer (General Valve) attached to a nitrogen tank. Using the micromanipulator, the tip of the micropipet was inserted into the embryo and a small volume of protein solution was expelled from the tip using positive pressure. To determine if our animal model could be used effectively to screen for these compounds, we performed a series of experiments in which we injected one of two different proteins having opposing effects on vessel formation—human endostatin (O'Reilly et al., Cell 88(2):277–285 (1997)) and human vascular endothelial growth factor (VEGF)—into an embryo. Endostatin, a collagen XVIII fragment, is an endogenous protein with potent anti-angiogenic activity. […] In preliminary experiments, we injected VEGF protein either into the yolk ball or into the perivitelline space between the yolk and the periderm. Because the second location is in the path of the venous return, proteins end up in the circulation of the embryo. To backfill the injection pipettes, we used a 2 mg/ml solution of VEGF. […] This is consistent with observations in other vertebrates. Drake et al., Proc. Natl. Acad. Sci. USA 92(17):7657–7661 (1995); Fouquet et al., supra. Endostatin was injected into the zebrafish as was VEGF.

[5] = 24 hour embryos pretreated with dye
[6] = 2 mg/ml solution, 24 hour embryos, AP staining at 72 hours

CC(=O)Oc1ccccc1C(=O)O [Aspirin]
Zebrafish LD50 (zebrafish embryos [1]; embryos exposed continuously for five days from 24 hours of development): 101 mg/L | Zebrafish specific toxicity observed (zebrafish embryos [1]; five-day exposure): teratogen,; also recorded: kidney,; also recorded: muscle; also recorded: erratic | Mammalian models specific toxicity (from the literature) (mice and rats): kidney,; also recorded: ureter,; also recorded: cardio-; also recorded: cranio-; also recorded: musculo-

COC(=O)CC[C@H](NC(=O)[C@H](CC(=O)OC)NC(=O)OCc1ccccc1)C(=O)N[C@H](C(=O)N[C@@H](CC(=O)OC)C(=O)CF)C(C)C [Caspase 3 inhibitor]
survival by 24 hours after the introduction of 100 μM Ibuprofen (zebrafish embryos [2]; yolk injection of 25 μM Caspase 3 inhibitor): all of the experimental embryos were dead | opacity at two hours after the addition of 100 μM Ibuprofen (zebrafish embryos [2]): still transparent | opaque cells at one hour after 100 μM Ibuprofen (zebrafish embryos [2]): not in embryos injected with the Caspase inhibitor

CC(C)Cc1ccc(C(C)C(=O)O)cc1 (centres unmarked) [Ibuprofen]
opacity at two hours after the addition of 100 μM Ibuprofen (zebrafish embryos [2]): completely opaque | opaque cells at one hour after 100 μM Ibuprofen (zebrafish embryos [2]): opaque cells were observed | fluorescently labeled (dead or dying) cells within 1 hour (zebrafish embryos [3]; 24 hour embryos pretreated with 100 nanomolar dye): fluorescently labeled cells were detected in the posterior tip of the tail | fluorescently labeled cells at 1 hour and 30 minutes (zebrafish embryos [3]; [5]): labeled cells were detected in a large patch, extended from the tip of the tail to the level of the anus | fluorescently labeled cells by two hours (zebrafish embryos [3]; [5]): fluorescently labeled cells could be seen throughout the embryo

CO[C@@H]1[C@H](OC(=O)/C=C/C=C/C=C/C=C/C(=O)O)CC[C@]2(CO2)[C@H]1[C@@]1(C)O[C@@H]1CC=C(C)C [fumagillin]
other effects / complications in the embryo (zebrafish embryo): pericardial edema, developmental delay, and axial defects | effect on blood vessel formation (zebrafish embryo): reduction in angiogenesis | diffusion into the zebrafish embryo (zebrafish embryo): capable of diffusing into the zebrafish embryo

Ovicillin
other effects / complications in the embryo (zebrafish embryo): pericardial edema | effect on blood vessel formation (zebrafish embryo): reduction in the subintestinal vessels | diffusion into the zebrafish embryo (zebrafish embryo): capable of diffusing into the zebrafish embryo

VEGF
angiogenic phenotypes after injection into the yolk (zebrafish embryos [4]; [6]): the appearance of long spikes projecting from the subintestinal vessel basket; also recorded: increased vessel diameters in the subintestinal basket | effect after injection into the perivitelline space (zebrafish embryos [4]; [6]): disruption of vessel formation; also recorded: fusion of large vessels, inappropriate vessel formation

endostatin
effect on vessel formation after injection (zebrafish embryos [4]; injected into the zebrafish as was VEGF): inconsistent and thus uninterpretable
